From patent publication US20250136577A1, “HETEROCYCLIC DERIVATIVES AS MALT1 INHIBITORS” (C4X Discovery Limited, priority 2022, published 2025)

Columns and labels:
FL hMALT1 enzyme = FL hMALT1 enzyme (Homo sapiens (Human), UniProt Q9UDY8); test: MALT1 Protease Assay 2 (Assay 2), higher sensitivity, cleavage of fluorogenic tetrapeptide substrate; format: biochemical; settings: FL hMALT1 1-10 nM, Ac-LVSR-AMC 100 μM, 0.7 M sodium citrate, 30 min preincubation, 60 min read
Experimental: MALT1 Protease Assay 2 (Assay 2)
(§1) MALT1 protease activity was assessed in vitro by measuring the cleavage of a fluorogenic tetrapeptide substrate.
For a higher sensitivity assay, commercially available FL hMALT1 enzyme (Abcam, 1-10 nM) was incubated with substrate (Ac-LVSR-AMC, 100 μM) in reaction buffer comprising 50 mM HEPES (pH7.0), 25 mM KCl, 0.1% (v/v) CHAPS, 1 mM TCEP and 0.7 M sodium citrate.
(§2) Test compounds dissolved in DMSO were dispensed into assay plates (384-well, black, shallow ProxiPlates). 7 μl enzyme solution was added and incubated at room temperature for 30 minutes to allow compound binding to occur. 2 μl substrate solution was then added and the fluorescence (excitation 360 nm, emission 460 nm) read every 15 minutes using a suitable plate reader. Final assay DMSO concentration was 1%. Linearity over 60 minutes was confirmed, and assay signal was calculated by subtracting raw counts at time 0 from those at 60 minutes. % inhibition was calculated for each well, using no enzyme for 100% inhibition controls and no compound for 0% inhibition controls. IC50 values were calculated using GraphPad Prism using a 4-parameter non-linear regression curve fit.

[1] = biological target: MALT1-GS-Ub (6-His-hMALT-1 residues 339-715 fused to ubiquitin) (Homo sapiens (Human), UniProt Q9UDY8); test: MALT1 Protease Assay 1 (Assay 1), cleavage of fluorogenic tetrapeptide substrate; format: biochemical; settings: MALT1-GS-Ub 300-600 nM, Ac-LVSR-AMC 100 μM, 30 min preincubation, 60 min read
Experimental: MALT1 Protease Assay 1 (Assay 1)
as §1
A protein (MALT1-GS-Ub) comprising 6-His-hMALT-1 (residues 339-715), fused to ubiquitin with an 8× GGS linker, was expressed in E. coli, and purified using chitin resin to remove contaminants followed by affinity chromatography purification and size-exclusion chromatography, according to standard protocols.
Briefly, MALT1-GS-Ub (300-600 nM) was incubated with substrate (Ac-LVSR-AMC, 100 μM) in reaction buffer comprising 50 mM HEPES (pH7.0), 25 mM KCl, 0.1% (v/v) CHAPS and 1 mM TCEP.
as §2

Sequence of FL hMALT1 enzyme (Q9UDY8 whole entry): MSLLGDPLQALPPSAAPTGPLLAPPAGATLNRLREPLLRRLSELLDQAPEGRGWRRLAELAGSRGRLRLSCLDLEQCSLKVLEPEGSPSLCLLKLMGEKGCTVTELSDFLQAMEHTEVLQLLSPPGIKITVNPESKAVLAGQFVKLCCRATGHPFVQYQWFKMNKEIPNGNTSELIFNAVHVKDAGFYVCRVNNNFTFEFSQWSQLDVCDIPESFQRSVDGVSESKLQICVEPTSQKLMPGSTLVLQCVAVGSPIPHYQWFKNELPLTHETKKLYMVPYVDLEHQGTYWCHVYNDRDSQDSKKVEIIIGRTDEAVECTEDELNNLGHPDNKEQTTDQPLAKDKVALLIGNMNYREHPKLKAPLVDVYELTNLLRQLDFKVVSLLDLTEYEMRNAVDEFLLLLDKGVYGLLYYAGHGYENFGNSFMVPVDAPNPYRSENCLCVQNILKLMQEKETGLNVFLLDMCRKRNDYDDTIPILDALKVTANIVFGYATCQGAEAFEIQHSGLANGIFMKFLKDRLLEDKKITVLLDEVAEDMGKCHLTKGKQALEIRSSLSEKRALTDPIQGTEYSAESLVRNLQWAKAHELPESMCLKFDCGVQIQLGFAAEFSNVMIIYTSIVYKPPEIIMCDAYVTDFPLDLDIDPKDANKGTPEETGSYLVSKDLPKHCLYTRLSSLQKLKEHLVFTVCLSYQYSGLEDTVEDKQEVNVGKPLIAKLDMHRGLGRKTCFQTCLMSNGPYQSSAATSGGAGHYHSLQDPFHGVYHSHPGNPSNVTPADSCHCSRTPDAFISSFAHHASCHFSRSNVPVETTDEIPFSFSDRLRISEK
Sequence of MALT1-GS-Ub (6-His-hMALT-1 residues 339-715 fused to ubiquitin) (Q9UDY8 other isoform, or with tags, fused parts or gaps): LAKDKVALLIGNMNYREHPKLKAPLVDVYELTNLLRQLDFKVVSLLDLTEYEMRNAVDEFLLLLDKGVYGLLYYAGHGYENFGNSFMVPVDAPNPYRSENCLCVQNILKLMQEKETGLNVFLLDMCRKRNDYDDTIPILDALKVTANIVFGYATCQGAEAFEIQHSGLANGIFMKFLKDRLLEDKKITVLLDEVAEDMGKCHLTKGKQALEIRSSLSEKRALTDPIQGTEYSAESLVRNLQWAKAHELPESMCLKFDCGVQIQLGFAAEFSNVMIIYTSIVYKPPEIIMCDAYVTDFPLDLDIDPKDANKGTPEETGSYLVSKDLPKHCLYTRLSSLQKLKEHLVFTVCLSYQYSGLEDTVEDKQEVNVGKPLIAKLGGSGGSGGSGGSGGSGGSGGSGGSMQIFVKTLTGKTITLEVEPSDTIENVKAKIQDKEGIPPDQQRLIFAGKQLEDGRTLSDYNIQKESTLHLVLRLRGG

| SMILES | IC50 (FL hMALT1 enzyme) [µM] | IC50 [1] [µM] |
| --- | --- | --- |
| N#Cc1cccc2c1CCCN2C(=O)Nc1cnc(-n2nccn2)c(Cl)c1 [Example 7, N-(5-Chloro-6-(2H-1,2,3-triazol-2-yl)pyridin-3-yl)-5-cyano-3,4-dihydroquinoline-1 (2H)-carboxamide] | 1.2 | 6.9 |
| O=C(Nc1cnc(-n2nccn2)c(Cl)c1)N1C[C@@H]2CCCN2c2c(Br)cncc21 [Example 25, (S)-1-Bromo-N-(5-chloro-6-(2H-1,2,3-triazol-2-yl)pyridin-3-yl)-6a,7,8,9-tetrahydropyrido[3,4-e] pyrrolo[1,2-a]pyrazine-5 (6H)-carboxamide] | 0.23 | 1.06 |
| CN1CCN(C(=O)Nc2cnc(-n3nccn3)c(Cl)c2)c2cncc(Br)c21 [Example 29, 8-Bromo-N-(5-chloro-6-(2H-1,2,3-triazol-2-yl)pyridin-3-yl)-1-methyl-2,3-dihydropyrido[3,4-b]pyrazine-4 (1H)-carboxamide] | > 3 | 3.8 |
| CN1CCN(C(=O)Nc2cnc(-n3nccn3)c(Cl)c2)c2cccc(Br)c21 [Example 16, 5-Bromo-N-(5-chloro-6-(2H-1,2,3-triazol-2-yl)pyridin-3-yl)-4-methyl-3,4-dihydroquinoxaline-1 (2H)-carboxamide] | 0.9 | 2.5 |
| CC1(C)CN(C(=O)Nc2cnc(-n3nccn3)c(Cl)c2)c2cncc(C3CC3)c2O1 [Example 24, N-(5-Chloro-6-(2H-1,2,3-triazol-2-yl)pyridin-3-yl)-8-cyclopropyl-2,2-dimethyl-2,3-dihydro-4H-pyrido[4,3-b][1,4]oxazine-4-carboxamide] | 0.34 | 2.5 |
| O=C(Nc1cnc(-n2nccn2)c(Cl)c1)N1CC(C(F)(F)F)Oc2c(Br)cncc21 (single isomer, unassigned) [Example 39, 8-Bromo-N-(5-chloro-6-(2H-1,2,3-triazol-2-yl)pyridin-3-yl)-2-(trifluoromethyl)-2,3-dihydro-4H-pyrido[4,3-b][1,4]oxazine-4-carboxamide] | 1.2 | 5.8 |
| O=C(Nc1cnc(-n2nccn2)c(Cl)c1)N1CC2CCCCN2c2c(Br)cncc21 (centres unmarked) [Example 28, 1-Bromo-N-(5-chloro-6-(2H-1,2,3-triazol-2-yl)pyridin-3-yl)-6,6a,7,8,9,10-hexahydro-5H-dipyrido[1,2-a: 3′,4′-e] pyrazine-5-carboxamide] | 1.1 | 7.3 |
| CN1c2c(Br)cncc2N(C(=O)Nc2cnc(-n3nccn3)c(Cl)c2)CC1(C)C [Example 31, 8-Bromo-N-(5-chloro-6-(2H-1,2,3-triazol-2-yl)pyridin-3-yl)-1,2,2-trimethyl-2,3-dihydropyrido[3,4-b]pyrazine-4 (1H)-carboxamide] | 0.26 | 3 |
| O=C(Nc1cnc(-n2nccn2)c(Cl)c1)N1CC(C(F)(F)F)Nc2c(Br)cncc21 (centres unmarked) [Example 37, 8-Bromo-N-(5-chloro-6-(2H-1,2,3-triazol-2-yl)pyridin-3-yl)-2-(trifluoromethyl)-2,3-dihydropyrido[3,4-b]pyrazine-4 (1H)-carboxamide] | 0.54 | 3.9 |
| O=C(Nc1cnc(-n2nccn2)c(Cl)c1)N1CCCc2c(C3CC3)cncc21 [Example 22, N-(5-Chloro-6-(2H-1,2,3-triazol-2-yl)pyridin-3-yl)-5-cyclopropyl-3,4-dihydro-1,7-naphthyridine-1 (2H)-carboxamide] | 4.7 | 4 |
| O=C(Nc1cnc(-n2nccn2)c(C(F)(F)F)c1)N1CCCc2c(-c3cccnc3)cccc21 [Example 8, N-(6-(2H-1,2,3-Triazol-2-yl)-5-(trifluoromethyl)pyridin-3-yl)-5-(pyridin-3-yl)-3,4-dihydroquinoline-1 (2H)-carboxamide] | > 10 | 9.8 |
| CC1CN(C(=O)Nc2cnc(-n3nccn3)c(C(F)(F)F)c2)c2cccc(Br)c2O1 (centres unmarked) [Example 5, N-(6-(2H-1,2,3-Triazol-2-yl)-5-(trifluoromethyl)pyridin-3-yl)-8-bromo-2-methyl-2,3-dihydro-4H-benzo[b][1,4]oxazine-4-carboxamide] | 0.12 | 3.3 |
| O=C(Nc1cnc(-n2nccn2)c(C(F)(F)F)c1)N1CCCc2c(-c3ncco3)cccc21 [Example 9, N-(6-(2H-1,2,3-Triazol-2-yl)-5-(trifluoromethyl)pyridin-3-yl)-5-(oxazol-2-yl)-3,4-dihydroquinoline-1 (2H)-carboxamide] | 2 | 4.6 |
| O=C(Nc1cnc(-n2nccn2)c(C(F)(F)F)c1)N1CCOc2c(Br)cccc21 [Example 4, N-(6-(2H-1,2,3-Triazol-2-yl)-5-(trifluoromethyl)pyridin-3-yl)-8-bromo-2,3-dihydro-4H-benzo[b][1,4]oxazine-4-carboxamide] | 0.4 | 2.8 |
| O=C(Nc1cnc(-n2nccn2)c(Cl)c1)N1CC2(CCOC2)Oc2c(Br)cncc21 (centres unmarked) [Example 27, 8′—Bromo-N-(5-chloro-6-(2H-1,2,3-triazol-2-yl)pyridin-3-yl)-4,5-dihydro-2H-spiro [furan-3,2′-pyrido[4,3-b][1,4]oxazine]-4′ (3′H)-carboxamide] | 0.9 | 5 |
| COc1cccc2c1CCCN2C(=O)Nc1cnc(-n2nccn2)c(Cl)c1 [Example 3, N-(5-Chloro-6-(2H-1,2,3-triazol-2-yl)pyridin-3-yl)-5-methoxy-3,4-dihydroquinoline-1 (2H)-carboxamide] | 0.61 | 3 |
| C#CC1CN(C(=O)Nc2cnc(-n3nccn3)c(Cl)c2)c2cccc(Br)c2O1 (centres unmarked) [Example 20, 8-Bromo-N-(5-chloro-6-(2H-1,2,3-triazol-2-yl)pyridin-3-yl)-2-ethynyl-2,3-dihydro-4H-benzo[b][1,4]oxazine-4-carboxamide] | 0.59 | 3.3 |
| O=C(Nc1cnc(-n2nccn2)c(Cl)c1)N1CCCc2c(Br)cncc21 [Example 17, 5-Bromo-N-(5-chloro-6-(2H-1,2,3-triazol-2-yl)pyridin-3-yl)-3,4-dihydro-1,7-naphthyridine-1 (2H)-carboxamide] | 1.5 | 0.5 |
| O=C(Nc1cnc(-n2nccn2)c(C(F)(F)F)c1)N1CCCc2c(-c3nncs3)cccc21 [Example 14, N-(6-(2H-1,2,3-triazol-2-yl)-5-(trifluoromethyl)pyridin-3-yl)-5-(1,3,4-thiadiazol-2-yl)-3,4-dihydroquinoline-1 (2H)-carboxamide] | 8.2 | 8.5 |
| O=C(Nc1cnc(-n2nccn2)c(C(F)(F)F)c1)N1CCCc2c(-c3ccccc3)cccc21 [Example 12, N-(6-(2H-1,2,3-Triazol-2-yl)-5-(trifluoromethyl)pyridin-3-yl)-5-phenyl-3,4-dihydroquinoline-1 (2H)-carboxamide] | 0.65 | 2.3 |
| O=C(Nc1cnc(-n2nccn2)c(Cl)c1)N1CCN(C2CCOCC2)c2c(Br)cncc21 [Example 33, 8-Bromo-N-(5-chloro-6-(2H-1,2,3-triazol-2-yl)pyridin-3-yl)-1-(tetrahydro-2H-pyran-4-yl)-2,3-dihydropyrido[3,4-b]pyrazine-4 (1H)-carboxamide] | 1.5 | 7.6 |
| C[C@@H]1CN(C(=O)Nc2cnc(-n3nccn3)c(C(F)(F)F)c2)c2cccc(Br)c2[C@@H]1C (relative stereo) [Example 11, cis-N-(6-(2H-1,2,3-Triazol-2-yl)-5-(trifluoromethyl)pyridin-3-yl)-5-bromo-3,4-dimethyl-3,4-dihydroquinoline-1 (2H)-carboxamide] | 1.2 | 4.1 |
